The source of these data is patent US20070172421A1, “Substituted pyrrolidine-2-ones” (priority 2004, published 2007).

Molecules are shown by their SMILES. Where a name gives a salt, the structure may show the parent alone.

Molecule `CC(=O)Nc1ccccc1C#C[C@H]1C[C@@H](CN2CCCCC2)C(=O)N1C.Cl` came in with a melting point of 135 to 140 °C.
In the case of `CN1C(=O)[C@@H](CN2CCCCC2)C[C@H]1c1ccc(Br)cc1` (as salt: HCl) [Example A7, (−)-cis-5-(4-Bromo-phenyl)-1-methyl-3-piperidin-1-ylmethyl-pyrrolidin-2-one] it was 55 to 58 °C.
The value for `CN1C(=O)[C@@H](CN2CCCCC2)C[C@H]1c1ccc(-c2ccc3c(c2)OCO3)cc1` (relative stereo) [Example H5, cis-5-(4-(Benzo[1,3]dioxol-5-yl)-phenyl)-1-methyl-3-piperidin-1-ylmethyl-pyrrolidin-2-one] was 110 to 112 °C; that for `Cc1ccc([C@@H]2C[C@H](CN3CCCCC3)C(=O)N2C)cc1C.Cl` [Example A1] was 143 to 147 °C; that for `Cc1ccc([C@@H]2C[C@H](CN3CCCCC3)C(=O)N2C)cc1C.Cl` [Example A2] was 138 to 142 °C.
The value for `Cc1cc(C)cc([C@@H]2C[C@H](CN3CCCCC3)C(=O)N2C)c1.Cl` [Example A3] was 184 to 190 °C; that for `Cc1cc(C)cc([C@@H]2C[C@H](CN3CCCCC3)C(=O)N2C)c1.Cl` [Example A4] was 172 to 180 °C.
Molecule `CN1C(=O)[C@@H](CN2CCCCC2)C[C@H]1c1ccc2c(c1)CCCC2.Cl` [Example A5] came in with a melting point of 208 to 210 °C.
Regarding `CN1C(=O)[C@@H](CN2CCCCC2)C[C@H]1c1ccc2c(c1)CCCC2.Cl` [Example A6], the melting point lay within 234 to 238 °C.
The value for `CN1C(=O)C(CN2CCCCC2)CC1C1CC1c1ccccc1Cl` (stereo not shown) [Example C2, 5-[2-(2-Chloro-phenyl)-cyclopropyl]-1-methyl-3-piperidin-1-ylmethyl-pyrrolidin-2-one] was 87 to 90 °C; that for `Cc1cccc(C#C[C@@H]2C[C@H](CN3CCCCC3)C(=O)N2C)c1.Cl` [Example D1] was 163 to 167 °C; that for `Cc1cccc(C#C[C@@H]2C[C@H](CN3CCCCC3)C(=O)N2C)c1.Cl` [Example D2] was 169 to 172 °C.
In the case of `CN1C(=O)[C@@H](CN2CCCCC2)C[C@H]1C#Cc1ccccc1.Cl` [Example D3] it was 197 to 201 °C; in that of `CN1C(=O)[C@@H](CN2CCCCC2)C[C@H]1C#Cc1ccccc1.Cl` [Example D4], 199 to 203 °C; in that of `CN1C(=O)[C@@H](CN2CCCCC2)C[C@H]1C#Cc1ccccc1Cl.Cl` [Example D5], 166 to 169 °C.
The value for `CN1C(=O)[C@@H](CN2CCCCC2)C[C@H]1C#Cc1ccccc1Cl.Cl` [Example D6] was 160 to 165 °C.
In turn, `CN1C(=O)[C@@H](CN2CCCCC2)C[C@H]1c1ccc(Br)s1` [Example E1, (+)-cis-5-(5-Bromo-thiophen-2-yl)-1-methyl-3-piperidin-1-ylmethyl-pyrrolidin-2-one] had a melting point of 69 to 71 °C.
The value for `CN1C(=O)[C@@H](CN2CCCCC2)C[C@H]1c1ccc(-c2cccc(Cl)c2)s1.Cl` [Example E9] was 162 to 163 °C.
In the case of `CN1C(=O)[C@@H](CN2CCCCC2)C[C@H]1c1ccc(-c2cccc(Cl)c2)s1.Cl` [Example E10] it was 155 to 158 °C; in that of `CN1C(=O)[C@@H](CN2CCCCC2)C[C@H]1c1cnc(-c2ccccc2Cl)s1.Cl` [Example F1], 178 to 183 °C.
In the case of `CN1C(=O)[C@@H](CN2CCCCC2)C[C@H]1c1cnc(-c2ccccc2Cl)s1.Cl` [Example F2] it was 171 to 176 °C; in that of `CN1C(=O)[C@@H](CN2CCCCC2)C[C@H]1c1cnc(-c2sccc2Cl)s1.Cl` [Example F3], 215 to 220 °C.
Consider `CN1C(=O)[C@@H](CN2CCCCC2)C[C@H]1c1cnc(-c2sccc2Cl)s1.Cl` [Example F4], for which the melting point fell in the range of 207 to 210 °C.
The value for `CN1C(=O)[C@@H](CN2CCCCC2)C[C@H]1c1ccc(-c2ccccc2Cl)cc1.Cl` [Example H2] was 134 to 139 °C; that for `CN1C(=O)[C@@H](CN2CCCCC2)C[C@H]1c1ccc(-c2ccccc2Cl)cc1.Cl` [Example H3] was 130 to 135 °C.
